The source of these data is patent US20090137565A1, “Method for treatment of movement disorders” (The Trustees of Columbia University in the City of New York, priority 2004, published 2009).

The test system of data set [1] is severe posthypoxic myoclonus. In words: Earlier trials of anti-myoclonic medications in the Example 1 patient (case history). The following applies: for reason for intolerance / adverse effect: human, in vivo. The text has this:
The patient was referred to the Columbia University Medical Center Movement Disorder Center for evaluation of severe posthypoxic myoclonus at the age of 37. […] Back-averaged EEGs and somatosensory evoked potentials were not available.

Data set [2] deals with severe posthypoxic myoclonus. The text has this:
After obtaining verbal consent from the patient and their spouse, they were given approximately six ounces of wine to drink (alcohol content 14% by volume). […] They were videotaped before and after the trial with alcohol.

Setting [3] is: Example 1 patient, before the trial.
Where [4] appears, read: approximately six ounces of wine.

As for `CC1(C)O[C@@H]2[C@@H](CO[C@@]3(COS(N)(=O)=O)OC(C)(C)O[C@@H]23)O1` [topiramate], the “outcome of trials of anti-myoclonic medications” value (shortened to “outcome”) in data set [1] (setting [3]) is reported as “only minimally successful”.

In the case of `CC[C@@H](C(N)=O)N1CCCC1=O` [levetiracetam], the “outcome” value in data set [1] (setting [3]) is on record as “only minimally successful”.

Turning to `CCO` [alcohol], in data set [2] (setting [4]), the “duration of anti-myoclonic effect” value was “resolved in several hours” and the effect on myoclonus entry is given as “dramatic improvement in myoclonus”. In addition, the “time to improvement in myoclonus” value in data set [2] (approximately six ounces of wine (alcohol content 14% by volume)) was at most 30 min.

Turning to `NS(=O)(=O)Cc1noc2ccccc12` [zonisamide], in data set [1] (setting [3]), the “outcome” value is listed as “only minimally successful”. Besides, in data set [1], the “reason for intolerance / adverse effect” value was “anorexia”.

`CCCC(CCC)C(=O)O` [valproic acid]: the “outcome” value in data set [1] (setting [3]) is reported as “only minimally successful”. The “reason for intolerance / adverse effect” value in data set [1] is “drop in platelet count”.

Regarding `O=C1CN=C(c2ccccc2Cl)c2cc([N+](=O)[O-])ccc2N1` [clonazepam], in data set [1] (setting [3]), the dose-limiting side effect entry is on record as “dose-limiting sedation”, the “effect on severity of myoclonus” value is given as “partially improved” and the “outcome” value was “only minimally successful”.
